Test results taken from BindingDB's records for doi:10.1021/bi2002967 (University of Colorado Denver, 2011).

Target: K562 (Homo sapiens)
Assay: Cell assay using human leukemia cell line K562.

IC50, > 10 µM:
Cc1c(COc2ccc([N+](=O)[O-])cc2)c2c(O)c(N=CCCCN)cc(O)c2n1C [Indolequinone, compd 1]
Cc1c(COc2c(F)cc(F)cc2F)c2c(O)c(N=CCCCN)cc(O)c2n1C [Indolequinone, compd 2]
Cc1c(COc2c(F)cc(F)cc2F)c2c(O)cc(N=CCCCN)c(O)c2n1C [Indolequinone, compd 3]
Cc1c(COc2c(F)cc(F)cc2F)c2c(O)c(N=CCCN)cc(O)c2n1C [Indolequinone, compd 4]
Cc1c(COc2c(F)cc(F)cc2F)c2c(O)c(N=CCCN(C)C)cc(O)c2n1C [Indolequinone, compd 5]
Cc1c(COc2c(F)cc(F)cc2F)c2c(O)cc(N=CCCN(C)C)c(O)c2n1C [Indolequinone, compd 6]
Cc1c(COc2c(F)cc(F)cc2F)c2c(n1C)C(=O)C=C(N(C)CCCN(C)C)C2=O [Indolequinone, compd 7]
Cc1c(COc2ccccc2)c2c(O)c(N=CCCN(C)C)cc(O)c2n1C [Indolequinone, compd 8]
Cc1c(CO)c2c(O)c(N=CCCN(C)C)cc(O)c2n1C [Indolequinone, compd 9]
